Results on 36 compounds are retold here after patent US6465228B1, “Levodione reductase” (Roche Vitamins, Inc., priority 1999, dated 2002).

In test [1] the test system is Corynebacterium aquaticum AKU611. Description: Biolog System assimilation of carbon sources. The format is cell-based. The settings on record: 96-well plate, BUGM+B medium, 24 hours at 28° C. The source says:
Each well contained one of the 96 types of carbon sources in BUGM+B medium (Biolog Universal Growth Media+Blood) (Biolog Inc.).

The next test deals with T1, levodione reductase (Leifsonia aquatica, UniProt Q9LBG2).
T1 construct: The LR is isolated and purified from the cell-free extract of disrupted cells; made in house; host or cells: Corynebacterium aquaticum AKU611 (FERM BP-6448); This is the natural producer and there was no recombinant expression; The enzyme was purified by ammonium sulfate precipitation and DEAE-Sephacel, alkyl Superose and MONO Q chromatography
T1 sequence (Q9LBG2 1-267): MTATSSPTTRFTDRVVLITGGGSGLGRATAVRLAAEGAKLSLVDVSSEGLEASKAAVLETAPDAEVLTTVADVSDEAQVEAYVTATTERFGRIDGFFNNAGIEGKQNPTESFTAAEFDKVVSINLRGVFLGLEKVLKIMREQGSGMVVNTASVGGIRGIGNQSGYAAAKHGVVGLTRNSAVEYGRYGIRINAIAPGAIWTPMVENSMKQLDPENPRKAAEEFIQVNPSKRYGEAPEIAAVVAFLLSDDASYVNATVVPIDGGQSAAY
The format is biochemical, Corynebacterium aquaticum AKU611. The method, then:
A basal reaction mixture having a total volume of 500 μl includes 100 μl of 1 M potassium phosphate buffer (pH 7.0), 20 μl of 8 mM NADH in 0.2 mM KOH, 10-40 μl of the enzyme solution (i.e., levodione reductase), and water up to a total of 500 μl . This reaction mixture was incubated for 1 minute at 37 ° C. Then, 2 μl of 0.5 M levodione solution were added to give a final concentration of 2 mM, and the whole mixture was incubated for 1 minute at 37 ° C. The levodione reductase enzyme activity was monitored with the decrease of the absorbance of NADH at 340 nm.

Where [2] appears, read: Table 4-1, + 3 mM NaCl, metal 100 mM.
[3] abbreviates: Table 4-1, + 3 mM NaCl, metal 200 mM.
Setting [4] is: Table 4-1, + 3 mM NaCl, metal 400 mM.
Setting [5] is: Table 4-1, + 3 mM NaCl, metal 800 mM.
Where [6] appears, read: Table 4-1, + 3 mM NaCl, metal 1600 mM.
Setting [7] is: Table 4-1, + 3 mM NaCl, metal 1800 mM.
Where [8] appears, read: Table 4-1, + 3 mM NaCl, metal 2000 mM.
Where [9] appears, read: Table 4-1, + 3 mM NaCl, metal 2500 mM.
Setting [10] is: Table 4-1, + 3 mM NaCl, metal 3000 mM.

Where two headings read alike, the source gives them in different places.

For `O=C(O)C[C@H](O)C(=O)O` [F5, L-malic acid], the Assimilation result in test [1] is listed as “−”.
For the compound `C[C@H](O)C(=O)O` [F3, L-lactic acid], the Assimilation entry in test [1] is listed as “−”.
On the same count and under the same terms, with `OC[C@@]12OC[C@@H](O1)[C@@H](O)[C@@H](O)[C@@H]2O` [D9, Sedoheputulosan] the entry was “−”; with `COC1OC(CO)C(O)C(O)C1O` [C9, α-methyl-D-galactoside], “−”.
The same measure, in the same setting: with `OC[C@H]1O[C@H](O[C@H]2O[C@H](CO)[C@@H](O)[C@H](O)[C@H]2O)[C@H](O)[C@@H](O)[C@@H]1O` [E2, D-trehalose] the entry was “−”; with `O[C@H]1[C@H](O)[C@@H](O)[C@H](O)[C@@H](O)[C@H]1O` [B12, m-inositol], “−”; with TWEEN ® 40 [A8], “+”.
As for `OC[C@@H](O)C(O)[C@H](O)CO` [B2, D-arabitol], the Assimilation result in test [1] was “+”.
Take Glycogen [A5]: the Assimilation entry in test [1] is “−”.
Still for that read-out and setting: then TWEEN ® 80 [A9], with “+”; and `OC[C@H]1O[C@H](OC[C@H]2O[C@H](OC[C@H]3O[C@H](O[C@]4(CO)O[C@H](CO)[C@@H](O)[C@@H]4O)[C@H](O)[C@@H](O)[C@@H]3O)[C@H](O)[C@@H](O)[C@H]2O)[C@H](O)[C@@H](O)[C@H]1O` [D11, Stachyose], with “+”.
Still for that read-out and setting: then `CO[C@H]1O[C@H](CO)[C@@H](O)[C@H](O)[C@H]1O` [C12, α-methyl-D-glucoside], with “−”; and `O=P(O)(O)O[C@H]1O[C@H](CO)[C@@H](O)[C@H](O)[C@H]1O` [H10, Glucose-1-phosphate], with “−”; and `OC[C@H]1O[C@@H]2O[C@H]3[C@H](O)[C@@H](O)[C@@H](O[C@H]4[C@H](O)[C@@H](O)[C@@H](O[C@H]5[C@H](O)[C@@H](O)[C@@H](O[C@H]6[C@H](O)[C@@H](O)[C@@H](O[C@H]7[C@H](O)[C@@H](O)[C@@H](O[C@H]8[C@H](O)[C@@H](O)[C@@H](O[C@H]1[C@H](O)[C@H]2O)O[C@@H]8CO)O[C@@H]7CO)O[C@@H]6CO)O[C@@H]5CO)O[C@@H]4CO)O[C@@H]3CO` [A3, β-cyclodextrin], with “−”.
On the same count and under the same terms, then `OC[C@H]1O[C@H](OC[C@H]2O[C@H](O[C@]3(CO)O[C@H](CO)[C@@H](O)[C@@H]3O)[C@H](O)[C@@H](O)[C@@H]2O)[C@H](O)[C@@H](O)[C@H]1O` [D5, D-raffinose], with “+”.
For `OC[C@H]1O[C@H](O[C@H]2[C@H](O)[C@@H](O)[C@@H](O[C@H]3[C@H](O)[C@@H](O)C(O)O[C@@H]3CO)O[C@@H]2CO)[C@H](O)[C@@H](O)[C@@H]1O` (mixture of isomers) [C4, Maltotriitrose], in test [1], the Assimilation entry is recorded as “+”.
On to `Cl.N` [NH4Cl], for which the “Relative Activity” value on levodione reductase (Table 4-2, metal 100 mM) stood at 6.4%; on levodione reductase (Table 4-2, metal 200 mM) it was 21.3%; at levodione reductase (Table 4-2, metal 400 mM), 39.3%; at levodione reductase (Table 4-2, metal 800 mM), 67.1%; at levodione reductase (Table 4-2, metal 1600 mM), 100%; on levodione reductase (Table 4-2, metal 1800 mM) it was 75.3%.
Turning to Dextrin [A4], the Assimilation result in test [1] is “−”.
Consider `OC[C@H]1O[C@@](CO)(O[C@H]2O[C@H](CO)[C@@H](O)[C@H](O)[C@H]2O)[C@@H](O[C@H]2O[C@H](CO)[C@@H](O)[C@H](O)[C@H]2O)[C@@H]1O` [C7, D-melezitose], for which the Assimilation entry in test [1] was “−”.
Still for that read-out and setting: then `OC[C@H]1O[C@H](OC[C@H]2OC(O)(CO)[C@@H](O)[C@@H]2O)[C@H](O)[C@@H](O)[C@@H]1O` (stereo partly drawn) [D3, Palatinose], with “+”.
In the case of `[Cl-].[K+]` [KCl], the “Relative Activity” value on levodione reductase (Table 4-2, metal 200 mM) came out at 11.5%; at levodione reductase (Table 4-2, metal 400 mM), 22.2%; on levodione reductase (Table 4-2, metal 800 mM) it was 40.5%; on levodione reductase (Table 4-2, metal 1600 mM), 45.3%; at levodione reductase (Table 4-2, metal 1800 mM), 33.5%; on levodione reductase (Table 4-2, metal 2000 mM) it was 28.4%. For the same compound, the “Relative Activity” value at levodione reductase (Table 4-2, metal 2500 mM) came to 25.9%; at levodione reductase (Table 4-2, metal 3000 mM) it was 25.2%.
For `CO[C@@H]1O[C@H](CO)[C@@H](O)[C@H](O)[C@H]1O` [D1, β-methyl-D-glucoside], in test [1], the Assimilation result is “−”.
Same read-out and setting: then Inulin [A6], with “−”; and `O=C1CC[C@@H](C(=O)O)N1` [G8, L-pyloglutamic acid], with “−”.
Same read-out and setting: with `COC1OC(CO)C(O)C(O)C1O` [D2, α-methyl-D-mannoside] the entry was “−”; with `O=C(CO)[C@@H](O[C@H]1O[C@H](CO)[C@@H](O)[C@H](O)[C@H]1O)[C@H](O)[C@H](O)CO` [E3, Turanose], “+”; with Mannan [A7], “−”.
On the same count and under the same terms, with `O=C(O)C[C@@H](O)C(=O)O` [F4, D-malic acid] the entry was “−”; with `OC[C@H]1O[C@@H]2O[C@H]3[C@H](O)[C@@H](O)[C@@H](O[C@H]4[C@H](O)[C@@H](O)[C@@H](O[C@H]5[C@H](O)[C@@H](O)[C@@H](O[C@H]6[C@H](O)[C@@H](O)[C@@H](O[C@H]7[C@H](O)[C@@H](O)[C@@H](O[C@H]1[C@H](O)[C@H]2O)O[C@@H]7CO)O[C@@H]6CO)O[C@@H]5CO)O[C@@H]4CO)O[C@@H]3CO` [A2, α-cyclodextrin], “−”; with `O=P(O)(O)OCC(O)CO` (racemic) [H12, DL-α-glycerol phosphate], “−”.
As for `NCCCCN` [G10, Putrscine], the Assimilation entry in test [1] is “−”.
Turning to `[Cl-].[Rb+]` [RbCl], the “increase of enzyme activity” value at levodione reductase (3 M RbCl) is given as “about 250 fold”. The “Relative Activity” value is given as 6.4% on levodione reductase (setting [2]); 7.5% on levodione reductase (setting [3]); 23.3% on levodione reductase (setting [4]); 32.6% at levodione reductase (setting [5]); 66.4% on levodione reductase (setting [6]); 65.1% at levodione reductase (setting [7]). In addition, the “Relative Activity” value at levodione reductase (setting [8]) is given as 93.2%; at levodione reductase (setting [9]), 93.3%; on levodione reductase (setting [10]), 100%.
Take `[Cl-].[Na+]` [NaCl]: the “Relative Activity” value amounted to 0.4% at levodione reductase (Table 4-1, Tris-HCl pH 7.5, metal 3 mM); 4.2% on levodione reductase (Table 4-2, metal 100 mM); 7.7% on levodione reductase (Table 4-2, metal 200 mM); 19.7% at levodione reductase (Table 4-2, metal 400 mM); 35.9% at levodione reductase (Table 4-2, metal 800 mM); 75.3% on levodione reductase (Table 4-2, metal 1600 mM). Besides, the “Relative Activity” value is listed as 62.8% at levodione reductase (Table 4-2, metal 1800 mM); 62.8% at levodione reductase (Table 4-2, metal 2000 mM); 53.9% at levodione reductase (Table 4-2, metal 2500 mM); 34.1% at levodione reductase (Table 4-2, metal 3000 mM).
For `OC[C@H]1O[C@H](OC[C@H]2OC(O)[C@H](O)[C@@H](O)[C@@H]2O)[C@H](O)[C@@H](O)[C@H]1O` (stereo partly drawn) [C8, D-melibiose], the Assimilation entry in test [1] is reported as “+”.
In the case of `[Cl-].[Cs+]` [CsCl], the “increase of enzyme activity” value at levodione reductase (1.8 M CsCl) is “about 250 fold”. In addition, the “Relative Activity” value on levodione reductase (setting [2]) is 5.9%; on levodione reductase (setting [3]) it was 14.3%; on levodione reductase (setting [4]), 28.3%; at levodione reductase (setting [5]), 48.1%; at levodione reductase (setting [6]), 71.4%; at levodione reductase (setting [7]) it was 100%. The “Relative Activity” value on levodione reductase (setting [8]) stood at 86.8%; on levodione reductase (setting [9]), 88.4%; on levodione reductase (setting [10]) it was 88.0%.
`COC1OC(CO)C(O)C(O)C1O` [C10, α-methyl-D-galactoside]: in test [1], the Assimilation entry is reported as “−”.
